Results: patent publication US20190225650A1, “PEPTIDOMIMETIC MACROCYCLES AND USE THEREOF IN REGULATING HIF1ALPHA” (AILERON THERAPEUTICS, INC., priority 2013, published 2019)
Bridge positions count the residues as written; N and C are the ends. Square brackets hold non-standard residues; d marks the D form. Peptide text beside a SMILES is read from it. R8 = C=CCCCCCC[C@@](C)(N)C(=O)O; S5 = C=CCCC[C@](C)(N)C(=O)O; Nle = CCCC[C@H](N)C(=O)O

Legend:
HRE-bla ME-180 cells [1] = experiment: Reporter gene assay (HRE-bla ME-180 HIF reporter, GeneBLAzer); type: cell-based, human; details: for EC50: 24 hour normoxia
In short: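 A FRET β-lactamase readout of HIF transcription was used. After compound treatment in 0.3% DMSO/media under normoxic conditions, 20 μl of 6× LiveBLAzer-FRET B/G (CCF4-AM) substrate was added. Plates sat 3 hr at room temperature in the dark and were read at 409 Ex/460Em and 409Ex/530Em on a Synergy 2. Inhibition was compared against DMSO vehicle controls, with chetomin as positive control.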

[2] = biological target: T1, flag-tagged HIF1α (AA 786-826) / His6-tagged p300 (AA 323-423) complex (Homo sapiens, UniProt Q09472); experiment: HIF1α p300 displacement assay (TR FRET, +CHAPS); type: binding; details: read-out: IC50 (nM) (HIF1α_p300 Displacement + CHAPS)
T1 construct: His6-tagged p300 (AA 323-423); made in house; host or cells: E. coli (pETDuet vector)
In short: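 In this TR-FRET displacement format, peptides compete HIF1α C-terminal transactivation domain off p300-CH. They were preincubated 1 h at room temperature with 300 nM complex in HEPES pH 7.4/NaCl buffer with 7.5 mM CHAPS and 1 mM DTT. Anti-His-D2 (4 nM) and anti-Flag-K (0.5 μM) followed for 2 h, and a one-site fit of the fluorescence ratio gave IC50.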

HRE-bla ME-180 cells [3] = experiment: Cell proliferation assay (viability, MTT, 1% FBS); type: cell-based, human
In short: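 Viable cell number was measured with the CellTiter 96 (MTT) kit after compounds were applied for a 16 h normoxic (21% O2) pretreatment, followed by further normoxic or hypoxic (1% O2) culture. Cells: 2×10^4 ME-180 per well, Opti-MEM + 1% FBS, 0.5% DMSO vehicle.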

EC50 (HRE-bla ME-180 cells [1]) | IC50 [2] | SMILES | 18 h Avg % max inhibition at top conc (HIF Rptr-24 hrs normoxia) (μM) (HRE-bla ME-180 cells [1]) | Viability 1% FBS AVG (MTT V3-24 hr Normoxia) (μM) (HRE-bla ME-180 cells [3])
> 30 µM | > 700 nM | CC[C@H](C)[C@H](NC(=O)[C@H](Cc1ccccc1)NC(C)=O)C(=O)N[C@@H](CC(N)=O)C(=O)N[C@@H](CCC(=O)O)C(=O)N[C@@H](CCCCN)C(=O)N[C@H](C(=O)N[C@@H](CC(C)C)C(=O)N[C@@H](CCSC)C(=O)N[C@@]1(C)CCCC=CCCC[C@@](C)(C(=O)N[C@@H](CCSC)C(=O)N[C@@H](C)C(=O)N[C@@H](CC(C)C)C(=O)N[C@@H](CO)C(=O)N[C@@H](CCCNC(=N)N)C(N)=O)NC(=O)[C@H]([C@@H](C)CC)NC(=O)[C@H](C(C)C)NC(=O)[C@H](CC(C)C)NC1=O)C(C)C [SP-288] (Ac-FINEKVLM[S5]LVI[S5]MALSR-NH2; staple 9-13) | + (<10: +) | ++++ (≥30: ++++)
> 30 µM | > 700 nM | CC[C@H](C)[C@H](NC(=O)[C@H](CCCNC(=N)N)NC(=O)[C@H](CC(=O)O)NC(=O)[C@H](CC(C)C)NC(=O)[C@H](C)NC(=O)[C@H](CCSC)NC(=O)[C@]1(C)CCCC=CCCC[C@](C)(NC(=O)[C@H](CCSC)NC(=O)[C@H](CC(C)C)NC(=O)[C@@H](NC(=O)[C@H](Cc2c[nH]cn2)NC(=O)[C@H](CCC(=O)O)NC(=O)[C@H](CC(N)=O)NC(=O)[C@@H](NC(=O)[C@H](Cc2ccccc2)NC(C)=O)[C@@H](C)CC)C(C)C)C(=O)N[C@@H](CC(C)C)C(=O)N[C@@H](C(C)C)C(=O)N[C@@H]([C@@H](C)CC)C(=O)N1)C(N)=O [SP-286] (Ac-FINEHVLM[S5]LVI[S5]MALDRI-NH2; staple 9-13) | ++ (≤10 but <25: ++) | ++++ (≥30: ++++)
> 30 µM | 400 to 700 nM | CCCC[C@H](NC(=O)[C@H](CC(C)C)NC(=O)[C@@H](NC(=O)[C@H](CCC(=O)O)NC(=O)[C@H](CCC(=O)O)NC(=O)[C@H](CC(=O)O)NC(=O)[C@@H](NC(=O)[C@H](CC(N)=O)NC(=O)[C@@H](NC(=O)[C@]1(C)CCCC=CCCCCCC[C@@](C)(NC(=O)[C@H](CCC(=O)O)NC(=O)CNC(=O)[C@H](CCC(N)=O)NC(=O)[C@H](CC(C)C)NC(=O)[C@H](CC(C)C)NC(C)=O)C(=O)N[C@@H](CC(C)C)C(=O)N[C@@H](CC(C)C)C(=O)N[C@@H](CCCNC(=N)N)C(=O)N[C@@H](C)C(=O)N[C@@H](CC(C)C)C(=O)N[C@@H](CC(=O)O)C(=O)N1)C(C)C)[C@@H](C)CC)C(C)C)C(=O)N[C@@]1(C)CCCC=CCCC[C@@](C)(C(=O)N[C@@H](CCCC)C(=O)N[C@@H](C)C(=O)N[C@@H](CC(C)C)C(N)=O)NC(=O)[C@H]([C@@H](C)CC)NC(=O)[C@H](C(C)C)NC(=O)[C@H](CC(C)C)NC1=O [SP-372] (Ac-LLQGE[R8]LLRALD[S5]VNIDEEVL[Nle][S5]LVI[S5][Nle]AL-NH2; staple 6-13, 23-27) | ++++ (≥50: ++++) | ++++ (≥30: ++++)
5 to 15 µM | 200 to 400 nM | CCCC[C@H](NC(=O)[C@H](Cc1ccccc1)NC(=O)[C@@H](NC(=O)[C@H](CCC(=O)O)NC(=O)[C@H](CCC(=O)O)NC(=O)[C@H](CC(=O)O)NC(=O)[C@@H](NC(=O)[C@H](Cc1ccccc1)NC(C)=O)[C@@H](C)CC)C(C)C)C(=O)N[C@@]1(C)CCCC=CCCC[C@@](C)(C(=O)N[C@@H](CCCC)C(=O)N[C@@H](C)C(=O)N[C@@H](CC(C)C)C(=O)N[C@@H](CC(=O)O)C(=O)N[C@@H](CCCNC(=N)N)C(=O)N[C@H](C(N)=O)[C@@H](C)CC)NC(=O)[C@H]([C@@H](C)CC)NC(=O)[C@H](C(C)C)NC(=O)[C@H](CC(C)C)NC1=O [SP-265] (Ac-FIDEEVF[Nle][S5]LVI[S5][Nle]ALDRI-NH2; staple 9-13) | ++++ (≥50: ++++) | ++++ (≥30: ++++)
> 30 µM | 200 to 400 nM | CCCC[C@H](NC(=O)[C@H](CCC(=O)O)NC(=O)[C@]1(C)CCCC=CCCCCCC[C@@](C)(NC(=O)[C@H](CCC(=O)O)NC(=O)[C@H](CC(=O)O)NC(=O)[C@@H](NC(=O)[C@H](CC(N)=O)NC(=O)[C@@H](NC(=O)[C@H](CCC(N)=O)NC(=O)[C@H](CC(=O)O)NC(=O)[C@H](CC(C)C)NC(=O)[C@H](C)NC(=O)[C@]2(C)CCCC=CCCC[C@](C)(NC(=O)CNC(=O)[C@H](CCC(N)=O)NC(=O)[C@H](CC(C)C)NC(=O)[C@H](CC(C)C)NC(C)=O)C(=O)N[C@@H](CCC(=O)O)C(=O)N[C@@H](CC(C)C)C(=O)N[C@@H](CC(C)C)C(=O)N2)C(C)C)[C@@H](C)CC)C(=O)N[C@@H](C(C)C)C(=O)N[C@@H](CC(C)C)C(=O)N[C@@H](CCCC)C(=O)N[C@@H](CO)C(=O)N[C@@H](CC(C)C)C(=O)N[C@@H](C(C)C)C(=O)N1)C(=O)NCC(N)=O [SP-343] (Ac-LLQG[S5]ELL[S5]ALDQVNIDE[R8]VL[Nle]SLV[S5]E[Nle]G-NH2; staple 5-9, 19-26) | + (<10: +) | ++++ (≥30: ++++)
> 30 µM | 200 to 400 nM | CCCC[C@H](NC(=O)[C@H](CCC(=O)O)NC(=O)[C@]1(C)CCCC=CCCCCCC[C@@](C)(NC(=O)[C@H](CCC(=O)O)NC(=O)[C@H](CC(=O)O)NC(=O)[C@@H](NC(=O)[C@H](CC(N)=O)NC(=O)[C@@H](NC(=O)[C@]2(C)CCCC=CCCCCCC[C@@](C)(NC(=O)[C@H](CCC(=O)O)NC(=O)CNC(=O)[C@H](CCC(N)=O)NC(=O)[C@H](CC(C)C)NC(=O)[C@H](CC(C)C)NC(C)=O)C(=O)N[C@@H](CC(C)C)C(=O)N[C@@H](CC(C)C)C(=O)N[C@@H](CCCNC(=N)N)C(=O)N[C@@H](C)C(=O)N[C@@H](CC(C)C)C(=O)N[C@@H](CC(=O)O)C(=O)N2)C(C)C)[C@@H](C)CC)C(=O)N[C@@H](C(C)C)C(=O)N[C@@H](CC(C)C)C(=O)N[C@@H](CCCC)C(=O)N[C@@H](CO)C(=O)N[C@@H](CC(C)C)C(=O)N[C@@H](C(C)C)C(=O)N1)C(=O)NCC(N)=O [SP-313] (Ac-LLQGE[R8]LLRALD[S5]VNIDE[R8]VL[Nle]SLV[S5]E[Nle]G-NH2; staple 6-13, 19-26) | + (<10: +) | ++++ (≥30: ++++)
15 to 30 µM | 200 to 400 nM | CCCC[C@H](NC(=O)[C@H](CC(C)C)NC(=O)[C@@H](NC(=O)[C@H](CCC(=O)O)NC(=O)[C@H](CCC(=O)O)NC(=O)[C@H](CC(=O)O)NC(=O)[C@@H](NC(=O)[C@H](CC(N)=O)NC(=O)[C@@H](NC(=O)[C@H](CCC(N)=O)NC(=O)[C@]1(C)CCCC=CCCC[C@](C)(NC(=O)[C@H](CC(C)C)NC(=O)[C@H](CCC(=O)O)NC(=O)[C@H](CCC(=O)O)NC(=O)CNC(=O)[C@H](CCC(N)=O)NC(=O)[C@H](CC(C)C)NC(=O)[C@H](CC(C)C)NC(C)=O)C(=O)N[C@@H](CCCNC(=N)N)C(=O)N[C@@H](C)C(=O)N[C@@H](CC(C)C)C(=O)N1)C(C)C)[C@@H](C)CC)C(C)C)C(=O)N[C@@]1(C)CCCC=CCCC[C@@](C)(C(=O)N[C@@H](CCCC)C(=O)NCC(N)=O)NC(=O)[C@H]([C@@H](C)CC)NC(=O)[C@H](C(C)C)NC(=O)[C@H](CC(C)C)NC1=O [SP-308] (Ac-LLQGEEL[S5]RAL[S5]QVNIDEEVL[Nle][S5]LVI[S5][Nle]G-NH2; staple 8-12, 23-27) | ++++ (≥50: ++++) | ++++ (≥30: ++++)
> 30 µM | 200 to 400 nM | CCCC[C@H](NC(=O)[C@]1(C)CCCC=CCCC[C@](C)(NC(=O)[C@H](CCCC)NC(=O)[C@H](CC(C)C)NC(=O)[C@@H](NC(=O)[C@H](CCC(=O)O)NC(=O)[C@H](CCC(=O)O)NC(=O)[C@H](CC(=O)O)NC(=O)[C@@H](NC(=O)[C@H](CC(N)=O)NC(=O)[C@@H](NC(=O)[C@]2(C)CCCC=CCCCCCC[C@@](C)(NC(=O)[C@H](CCC(=O)O)NC(C)=O)C(=O)N[C@@H](CC(C)C)C(=O)N[C@@H](CC(C)C)C(=O)N[C@@H](CCCNC(=N)N)C(=O)N[C@@H](C)C(=O)N[C@@H](CC(C)C)C(=O)N[C@@H](CC(=O)O)C(=O)N2)C(C)C)[C@@H](C)CC)C(C)C)C(=O)N[C@@H](CC(C)C)C(=O)N[C@@H](C(C)C)C(=O)N[C@@H]([C@@H](C)CC)C(=O)N1)C(N)=O [SP-351] (Ac-E[R8]LLRALD[S5]VNIDEEVL[Nle][S5]LVI[S5][Nle]-NH2; staple 2-9, 19-23) | ++ (≤10 but <25: ++) | ++++ (≥30: ++++)
> 30 µM | > 700 nM | CCCC[C@H](NC(=O)[C@H](Cc1ccccc1)NC(=O)[C@@H](NC(=O)[C@H](C)NC(=O)[C@H](CCC(=O)O)NC(=O)[C@H](CC(=O)O)NC(=O)[C@@H](NC(=O)[C@H](Cc1ccccc1)NC(C)=O)[C@@H](C)CC)C(C)C)C(=O)N[C@@]1(C)CCCC=CCCC[C@@](C)(C(=O)N[C@@H](CCCC)C(=O)N[C@@H](C)C(=O)N[C@@H](CC(C)C)C(=O)N[C@@H](CC(C)C)C(N)=O)NC(=O)[C@H]([C@@H](C)CC)NC(=O)[C@H](C(C)C)NC(=O)[C@H](CC(C)C)NC1=O [SP-249] (Ac-FIDEAVF[Nle][S5]LVI[S5][Nle]ALL-NH2; staple 9-13) | + (<10: +) | ++++ (≥30: ++++)
